Test results from US8202893B2, “Cannabinergic lipid ligands” (University of Connecticut, priority 2004, dated 2012).
Where two headings read alike, the source gives them in different places.

Assays:
CB1 cannabinoid receptor = biological target: T1, CB1 cannabinoid receptor (Rattus norvegicus, UniProt P20272); assay: CB1 receptor binding, [3H]CP-55,940 displacement; details: rat forebrain membranes
T1 construct: membranes were prepared from rat forebrain membranes; from tissue; host or cells: rat forebrain
T1 sequence (P20272 whole entry): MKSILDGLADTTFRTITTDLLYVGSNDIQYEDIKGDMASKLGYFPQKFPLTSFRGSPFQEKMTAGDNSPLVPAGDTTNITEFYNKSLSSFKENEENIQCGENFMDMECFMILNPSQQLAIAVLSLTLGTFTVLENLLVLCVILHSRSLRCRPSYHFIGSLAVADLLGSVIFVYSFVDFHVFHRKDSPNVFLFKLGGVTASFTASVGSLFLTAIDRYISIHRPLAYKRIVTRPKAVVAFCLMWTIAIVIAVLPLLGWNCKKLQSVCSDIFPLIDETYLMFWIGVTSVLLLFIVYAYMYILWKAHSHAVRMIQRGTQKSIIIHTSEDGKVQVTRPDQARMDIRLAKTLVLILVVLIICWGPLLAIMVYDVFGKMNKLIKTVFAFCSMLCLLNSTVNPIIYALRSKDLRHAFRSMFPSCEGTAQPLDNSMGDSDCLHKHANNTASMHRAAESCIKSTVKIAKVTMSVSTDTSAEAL
Procedure: Some inventive analogs were tested for CB2 receptor binding affinity and for CB1 receptor affinity (to determine selectivity). […] The lower the Ki value, the higher the binding affinity. […] For the CB1 receptor binding studies, membranes were prepared from rat forebrain membranes according to the procedure of P. R. Dodd et al, A Rapid Method for Preparing Synaptosomes: Comparison with Alternative Procedures, Brain Res., 107-118 (1981). The binding of the novel analogues to the CB1 cannabinoid receptor was assessed as described in W. A. Devane et al, Determination and Characterization of a Cannabinoid Receptor in a Rat Brain, Mol. Pharmacol., 34, 605-613 (1988) and A. Charalambous et al, 5′-azido Δ^8-THC: A Novel Photoaffinity Label for the Cannabinoid Receptor, J. Med. Chem., 35, 3076-3079 (1992) with the following changes. The above articles are incorporated by reference herein.
Membranes, previously frozen at −80° C., were thawed on ice. To the stirred suspension was added three volumes of TME (25 mM Tris-HCl buffer, 5 mM MgCl2 and 1 mM EDTA) at a pH 7.4. The suspension was incubated at 4° C. for 30 min. At the end of the incubation, the membranes were pelleted and washed three times with TME.
(§1) The treated membranes were subsequently used in the binding assay described below. Approximately 30 μg of membranes were incubated in silanized 96-well microtiter plate with TME containing 0.1% essentially fatty acid-free bovine serum albumin (BSA), 0.8 nM [^3H] CP-55,940, and various concentrations of test materials in a final volume of 200 μL. The assays were incubated for 1 hour at 30° C. and then immediately filtered using Packard Filtermate 196 harvester and Whatman GF/C filterplates and washed with wash buffer (TME) containing 0.5% BSA. Radioactivity was detected using MicroScint 20 scintillation cocktail added directly to the dried filterplates, and the filterplates were counted using a Packard Instruments Top-Count. Nonspecific binding was assessed using 100 nM CP-55,940. Data collected from three independent experiments performed with duplicate determinations was normalized between 100% and 0% specific binding for [^3H] CP-55,940, determined using buffer and 100 nM CP-55,940. The normalized data was analyzed using a 4-parameter nonlinear logistic equation to yield IC50 values.

CB2 receptor = biological target: T2, CB2 receptor (Mus musculus, UniProt P47936); assay: CB2 receptor binding, [3H]CP-55,940 displacement; details: mouse spleen membranes
T2 construct: membranes were prepared from frozen mouse spleen; from tissue; host or cells: mouse spleen
T2 sequence (P47936 whole entry): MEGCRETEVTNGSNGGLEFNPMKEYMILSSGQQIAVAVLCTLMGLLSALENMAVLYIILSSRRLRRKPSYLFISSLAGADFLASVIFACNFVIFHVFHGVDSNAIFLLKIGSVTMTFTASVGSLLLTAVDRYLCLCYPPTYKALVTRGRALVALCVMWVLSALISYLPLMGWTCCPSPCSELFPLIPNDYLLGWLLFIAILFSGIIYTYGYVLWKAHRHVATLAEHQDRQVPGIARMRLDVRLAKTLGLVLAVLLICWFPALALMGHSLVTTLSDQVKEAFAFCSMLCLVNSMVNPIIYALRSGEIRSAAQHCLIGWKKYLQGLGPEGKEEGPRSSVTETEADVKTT
Procedure: as §1
For the CB2 receptor binding studies, membranes were prepared from frozen mouse spleen essentially according to the procedure of P. R. Dodd et al, A Rapid Method for Preparing Synaptosomes: Comparison with Alternative Procedures, Brain Res., 226, 107-118 (1981) which is incorporated by reference herein. Silanized centrifuge tubes were used throughout to minimize receptor loss due to adsorption. The CB2 binding assay was conducted in the same manner as for the CB1 binding assay. The binding affinities (Ki) were also expressed in nanomoles (nM).

[1] = biological target: T3, FAAH (fatty acid amide hydrolase) (Rattus norvegicus, UniProt P97612); assay: FAAH screening: inhibition of anandamide metabolism to arachidonic acid; assay type: biochemical; details: 25 nmoles compound with 25 nmoles AEA, 75 μg enzyme, 250 μL, 15 min
T3 construct: Anandamide Amidase Activity in Rat Brain Microsomes; from tissue; host or cells: rat brain microsomes (by the cited procedure)
T3 sequence (P97612 1-579): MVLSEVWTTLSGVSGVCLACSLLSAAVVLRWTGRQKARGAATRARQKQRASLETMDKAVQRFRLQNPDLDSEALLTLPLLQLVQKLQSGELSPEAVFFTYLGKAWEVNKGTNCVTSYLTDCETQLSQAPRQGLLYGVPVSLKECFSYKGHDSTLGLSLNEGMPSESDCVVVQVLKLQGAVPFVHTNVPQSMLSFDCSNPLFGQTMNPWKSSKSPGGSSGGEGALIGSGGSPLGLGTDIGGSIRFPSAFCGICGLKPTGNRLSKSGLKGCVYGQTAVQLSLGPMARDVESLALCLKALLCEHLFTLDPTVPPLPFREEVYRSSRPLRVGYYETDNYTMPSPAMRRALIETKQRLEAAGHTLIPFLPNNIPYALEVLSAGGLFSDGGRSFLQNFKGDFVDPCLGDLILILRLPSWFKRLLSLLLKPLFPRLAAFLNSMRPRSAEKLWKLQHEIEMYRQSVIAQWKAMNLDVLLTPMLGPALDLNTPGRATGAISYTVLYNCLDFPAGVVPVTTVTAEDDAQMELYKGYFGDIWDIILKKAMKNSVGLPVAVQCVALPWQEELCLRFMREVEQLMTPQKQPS
Procedure: The FAAH (fatty acid amide hydrolase) enzyme preparation was obtained according to the procedure of Lang and Makriyannis et al High Performance Liquid Chromatographic Determination of Anandamide Amidase Activity in Rat Brain Microsomes, Analytical Biochemistry (238): 40-45, 1996.
All compound solutions were made to a concentration of 10 mM in DMSO. Three tests were performed on each compound: hydrolysis, to determine the stability of the compound in assay conditions without the enzyme present; metabolism, to determine the stability of the compound with the enzyme present; and inhibition of anandamide (native substrate) metabolism to arachidonic acid.
Again the reaction mixture was treated in the same manner as described above and the concentrations of AEA and AA were calculated using external standards. Percent inhibition was calculated using the following equation: % Inhib.=(AA15-AA0)i/(AA15-AA0)s where (AA15-AA0)c is the amount of arachidonic acid formed over 15 minutes from AEA with the inhibitor present and (AA15-AA0)s is the amount of arachidonic acid formed over 15 minutes from AEA when the inhibitor is not present. […] The reaction mixtures were treated as described above and the amount of AA formed was calculated. The software package GraphPad Prism was utilized to calculate IC50 and Ki. HPLC Conditions:
Chromatographic separation was achieved using an Ultrasphere ODS Pre-column (4.6×45 mm) from Beckman. Hardware consisted of a Waters Millennium HPLC system with a 20 μL injection loop. The mobile phase consisted of 8.5% o-phosphoric acid:acetonitrile (3:7), run isocratically at a rate of 1 mL/min and detection at 204 nm. The total run time was 8 minutes with AEA eluting at 2.2 minutes and AA at 6.0 minutes.

[2] = with PMSF (second value of cell), read-out: Ki CB1 (nM) (o/w PMSFQ)
[3] = without PMSF (first value of cell), read-out: Ki CB1 (nM) (o/w PMSFQ)
[4] = with PMSF (second value of cell), read-out: Ki CB1 (nM) (o/w PMSF)
[5] = without PMSF (first value of cell), read-out: Ki CB1 (nM) (o/w PMSF)

Row | Structure (SMILES) | Ki (CB1 cannabinoid receptor; [2]) | Ki (CB1 cannabinoid receptor; [3]) | Ki (CB2 receptor) | FAAH % Inhibition [1] | Ki (CB1 cannabinoid receptor; [4]) | Ki (CB1 cannabinoid receptor; [5])
1 | O=C(CCC/C=C\C/C=C\C/C=C\C/C=C\CCCCc1ccccc1)NCC1CC1 [Compound A1] | 153 nM | 94.6 nM | 177 nM | 23% | – | –
2 | O=C(CCC/C=C\C/C=C\C/C=C\C/C=C\CCc1ccccc1)NCC1CC1 [Compound A2] | 129 nM | 729 nM | 171 nM | 32% | – | –
3 | O=C(CCC/C=C\C/C=C\C/C=C\C/C=C\CCc1ccccc1)Nc1ccc(O)cc1 [Compound A3] | 58.6 nM | 183 nM | 83.3 nM | 34% | – | –
4 | O=C(CCC/C=C\C/C=C\C/C=C\C/C=C\CCc1ccccc1)Nc1nccs1 [Compound A4] | 84.3 nM | 1180 nM | 1230 nM | 58% | – | –
5 | [N-]=[N+]=NCCCC/C=C\C/C=C\C/C=C\C/C=C\CCCC(=O)NCC1CC1 [Compound A6] | 114 nM | 195 nM | 426 nM | 11% | – | –
6 | COc1cc(CNC(=O)CCC/C=C\C/C=C\C/C=C\C/C=C\CCCCN=[N+]=[N-])ccc1O [Compound A7] | 80.5 nM | 165 nM | 302 nM | 46% | – | –
7 | COc1cc(CNC(=O)CCC/C=C\C/C=C\C/C=C\C/C=C\CCCCN=C=S)ccc1O [Compound A12] | 136 nM | 193 nM | 553 nM | 39% | – | –
8 | O=C(CCC/C=C\C/C=C\C/C=C\C/C=C\CCCCCBr)NC1CC1 [Compound A18] | 0.16 nM | 25.1 nM | 12.3 nM | 72% | – | –
9 | CCCCCC=CCC=CCC=CCC=CCCCCOC(=O)NCC(C)O (stereo not drawn) [Compound B3] | – | – | 597 nM | 10% | 396 nM | 526 nM
10 | CCCCC/C=C\C/C=C\C/C=C\C/C=C\CCCCNC(=O)NC[C@H](C)O [Compound B12] | – | – | 242 nM | 17.2% | 126 nM | 380 nM
11 | CCCCC/C=C\C/C=C\CCCCCCCCOC(=O)NC[C@H](C)O [Compound B14] | – | – | 2250 nM | 1.20% | 405 nM | 1350 nM
12 | CC/C=C\C/C=C\C/C=C\CCCCCCCCOC(=O)NC[C@H](C)O [Compound B15] | – | – | 422 nM | 6.96% | 481 nM | 622 nM
